{
  "source": "patent US20250115591A1",
  "about": "“NOVEL SULFONAMIDE CARBOXAMIDE COMPOUNDS” (INFLAZOME LIMITED, priority 2017, published 2025)",
  "note": "Structures can show the parent of a compound that is named as a salt.",
  "data": [
    {"target": "NLRP3 (Homo sapiens (Human), UniProt Q96P20)", "sequence (Q96P20 whole entry)": "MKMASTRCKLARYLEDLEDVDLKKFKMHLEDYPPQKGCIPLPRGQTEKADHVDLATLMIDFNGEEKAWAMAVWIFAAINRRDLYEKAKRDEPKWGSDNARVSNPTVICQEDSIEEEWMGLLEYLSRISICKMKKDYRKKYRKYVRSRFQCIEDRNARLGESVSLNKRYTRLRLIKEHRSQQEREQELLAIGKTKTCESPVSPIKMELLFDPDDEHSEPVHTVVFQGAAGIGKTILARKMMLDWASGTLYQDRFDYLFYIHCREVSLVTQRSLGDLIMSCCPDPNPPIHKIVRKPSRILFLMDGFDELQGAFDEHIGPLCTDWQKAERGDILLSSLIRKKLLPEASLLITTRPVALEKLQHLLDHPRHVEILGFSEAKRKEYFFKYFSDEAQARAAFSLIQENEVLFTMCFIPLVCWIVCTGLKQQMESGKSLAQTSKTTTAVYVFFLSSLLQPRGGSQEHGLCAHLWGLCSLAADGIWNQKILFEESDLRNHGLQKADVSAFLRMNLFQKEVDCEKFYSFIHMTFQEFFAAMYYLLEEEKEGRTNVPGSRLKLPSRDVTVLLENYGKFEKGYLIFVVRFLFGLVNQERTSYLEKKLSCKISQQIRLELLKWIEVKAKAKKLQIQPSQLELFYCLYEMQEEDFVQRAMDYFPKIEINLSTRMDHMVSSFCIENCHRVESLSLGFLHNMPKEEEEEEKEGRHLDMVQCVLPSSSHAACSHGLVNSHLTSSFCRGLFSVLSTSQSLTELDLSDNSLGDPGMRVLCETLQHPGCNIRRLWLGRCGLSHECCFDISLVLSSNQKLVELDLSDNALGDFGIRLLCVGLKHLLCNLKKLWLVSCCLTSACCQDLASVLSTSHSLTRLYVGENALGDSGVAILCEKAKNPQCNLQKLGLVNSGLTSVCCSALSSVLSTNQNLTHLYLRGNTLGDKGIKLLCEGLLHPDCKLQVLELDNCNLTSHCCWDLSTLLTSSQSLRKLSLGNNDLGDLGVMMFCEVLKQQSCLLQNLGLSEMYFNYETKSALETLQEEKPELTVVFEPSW", "assay": "THP-1 cells pyroptosis assay (LPS + nigericin, resazurin read-out)", "assay_type": "cell-based", "details": "1 μg/ml LPS, 5 μM nigericin", "procedure": "THP-1 cells (ATCC #TIB-202) were grown in RPMI containing L-glutamine (Gibco 15 #11835) supplemented with 1 mM sodium pyruvate (Sigma #S8636) and penicillin (100 units/ml)/streptomycin (0.1 mg/ml) (Sigma #P4333) in 10% Fetal Bovine Serum (FBS) (Sigma #F0804). The cells were routinely passaged and grown to confluency (˜10^6 cells/ml). On the day of the experiment, THP-1 cells were harvested and resuspended into RPMI medium (without FBS). The cells were then counted and viability (>90%) checked by Trypan blue (Sigma #T8154). Appropriate dilutions were made to give a concentration of 625,000 cells/ml. To this diluted cell solution was added LPS (Sigma #[4524) to give a 1 μg/ml Final Assay Concentration (FAC). 40μ of the final preparation was aliquoted into each well of a 96-well plate. The plate thus prepared was used for compound screening.\nThe following method step-by-step assay was followed for compound screening. • 1. Seed THP-1 cells (25,000 cells/well) containing 1.0 μg/ml LPS in 40μ of RPMI medium (without FBS) in 96-well, black walled, clear bottom cell culture plates coated with poly-D-lysine (VWR #734-0317) • 2. Add 5 μl compound (8 points half-log dilution, with […]) or vehicle (DMSO 0.1% FAC) to the appropriate wells • 3. Incubate for 3 hrs at 37° C. and 5% CO2 • 4. Add 5 μl nigericin (Sigma #N7143) (FAC 5 μM) to all wells • 5. Incubate for 1 hr at 37° C. and 5% CO2 • 6. At the end of the incubation period, spin plates at 300×g for 3 mins and remove supernatant • 7. Then add 50 μl of resazurin (Sigma #R7017) (FAC 100 μM resazurin in RPMI medium without FBS) and incubate plates for a further 1-2 hrs at 37° C. and 5% CO2 • 8. Plates were read in an Envision reader at Ex 560 nm and Em 590 nm • 9. IC50 data is fitted to a non-linear regression equation (log inhibitor vs response-variable slope 4-parameters)", "units": {"IC50": "nM"}, "values": [
      {"smiles": "CCN1CC(S(=O)(=O)NC(=O)Nc2c3c(cc4c2CCC4)CCC3)Cc2ccccc21", "note": "(centres unmarked) [Example 66, 1-Ethyl-N-((1,2,3,5,6,7-hexahydro-s-indacen-4-yl)carbamoyl)-1,2,3,4-tetrahydroquinoline-3-sulfonamide, potassium salt]", "IC50": "< 1000"},
      {"smiles": "O=C(Nc1c2c(cc3c1CCC3)CCC2)NS(=O)(=O)C1CCN(CC(F)(F)F)CC1", "note": "[Example 67, N-((1,2,3,5,6,7-Hexahydro-s-indacen-4-yl)carbamoyl)-1-(2,2,2-trifluoroethyl)piperidine-4-sulfonamide, potassium salt]", "IC50": "1000 to 10000"},
      {"smiles": "CC(C)N1CCC(S(=O)(=O)NC(=O)Nc2c3c(cc4c2CCC4)CCC3)C1=O", "note": "(centres unmarked) [Example 68, N-((1,2,3,5,6,7-Hexahydro-s-indacen-4-yl)carbamoyl)-1-isopropyl-2-oxopyrrolidine-3-sulfonamide, potassium salt]", "IC50": "< 1000"},
      {"smiles": "CCN1CCC(N2CC(S(=O)(=O)NC(=O)Nc3c4c(cc5c3CCC5)CCC4)C2)CC1", "note": "[Example 73, 1-(1-Ethylpiperidin-4-yl)-N-((1,2,3,5,6,7-hexahydro-s-indacen-4-yl)carbamoyl)azetidine-3-sulfonamide, potassium salt]", "IC50": "1000 to 10000"},
      {"smiles": "CC(C)(C)OC(=O)N1CC(S(=O)(=O)NC(=O)Nc2c3c(cc4c2CCC4)CCC3)C1", "note": "[Example 77, tert-Butyl 3-(N-((1,2,3,5,6,7-hexahydro-s-indacen-4-yl)carbamoyl)sulfamoyl)azetidine-1-carboxylate, potassium salt]", "IC50": "1000 to 10000"},
      {"smiles": "CC(=O)N1CC(N2CCC(S(=O)(=O)NC(=O)Nc3c4c(cc5c3CCC5)CCC4)CC2)C1", "note": "[Example 79, 1-(1-Acetylazetidin-3-yl)-N-((1,2,3,5,6,7-hexahydro-s-indacen-4-yl)carbamoyl)piperidine-4-sulfonamide, potassium salt]", "IC50": "1000 to 10000"},
      {"smiles": "CN1CC(N2CCC(S(=O)(=O)NC(=O)Nc3c4c(cc5c3CCC5)CCC4)CC2)C1", "note": "[Example 80, N-((1,2,3,5,6,7-Hexahydro-s-indacen-4-yl)carbamoyl)-1-(1-methylazetidin-3-yl)piperidine-4-sulfonamide, potassium salt]", "IC50": "1000 to 10000"},
      {"smiles": "CCC(CC)N1CCC(S(=O)(=O)NC(=O)Nc2c3c(cc4c2CCC4)CCC3)C1", "note": "(centres unmarked) [Example 81, N-((1,2,3,5,6,7-Hexahydro-s-indacen-4-yl)carbamoyl)-1-(pentan-3-yl)pyrrolidine-3-sulfonamide, potassium salt]", "IC50": "1000 to 10000"},
      {"smiles": "CC(C)(O)CN1CC(S(=O)(=O)NC(=O)Nc2c3c(cc4c2CCC4)CCC3)C1", "note": "[Example 84, N-((1,2,3,5,6,7-Hexahydro-s-indacen-4-yl)carbamoyl)-1-(2-hydroxy-2-methylpropyl)azetidine-3-sulfonamide, potassium salt]", "IC50": "< 1000"},
      {"smiles": "O=C(Nc1c2c(cc3c1CCC3)CCC2)NS(=O)(=O)C1CN(C(CF)CF)C1", "note": "[Example 86, 1-(1,3-Difluoropropan-2-yl)-N-((1,2,3,5,6,7-hexahydro-s-indacen-4-yl)carbamoyl)azetidine-3-sulfonamide, potassium salt]", "IC50": "1000 to 10000"},
      {"smiles": "COCCN1CC(S(=O)(=O)NC(=O)Nc2c3c(cc4c2CCC4)CCC3)C1", "note": "[Example 88, N-((1,2,3,5,6,7-Hexahydro-s-indacen-4-yl)carbamoyl)-1-(2-methoxyethyl)azetidine-3-sulfonamide, potassium salt]", "IC50": "< 1000"},
      {"smiles": "O=C(Nc1c2c(cc3c1CCC3)CCC2)NS(=O)(=O)C1CN(CC2CCCCC2)C1", "note": "[Example 89, 1-(Cyclohexylmethyl)-N-((1,2,3,5,6,7-hexahydro-s-indacen-4-yl)carbamoyl)azetidine-3-sulfonamide, potassium salt]", "IC50": "1000 to 10000"},
      {"smiles": "CC(=N)N1CC(S(=O)(=O)NC(=O)Nc2c3c(cc4c2CCC4)CCC3)C1", "note": "[Example 100, N-((1,2,3,5,6,7-Hexahydro-s-indacen-4-yl)carbamoyl)-1-(1-iminoethyl)azetidine-3-sulfonamide, potassium salt]", "IC50": "1000 to 10000"},
      {"smiles": "CN(C)CCN1CC(S(=O)(=O)NC(=O)Nc2c3c(cc4c2CCC4)CCC3)C1", "note": "[Example 102, 1-(2-(Dimethylamino)ethyl)-N-((1,2,3,5,6,7-hexahydro-s-indacen-4-yl)carbamoyl)azetidine-3-sulfonamide, potassium salt]", "IC50": "1000 to 10000"},
      {"smiles": "O=C(Nc1c2c(cc3c1CCC3)CCC2)NS(=O)(=O)C1CN(Cc2ccccn2)C1", "note": "[Example 104, N-((1,2,3,5,6,7-Hexahydro-s-indacen-4-yl)carbamoyl)-1-(pyridin-2-ylmethyl)azetidine-3-sulfonamide, potassium salt]", "IC50": "< 1000"},
      {"smiles": "CSCCN1CC(S(=O)(=O)NC(=O)Nc2c3c(cc4c2CCC4)CCC3)C1", "note": "[Example 107, N-((1,2,3,5,6,7-Hexahydro-s-indacen-4-yl)carbamoyl)-1-(2-(methylthio)ethyl)azetidine-3-sulfonamide, potassium salt]", "IC50": "< 1000"},
      {"smiles": "CN1CC(N2CC(S(=O)(=O)NC(=O)Nc3c4c(cc5c3CCC5)CCC4)C2)C1", "note": "[Example 110, N-((1,2,3,5,6,7-Hexahydro-s-indacen-4-yl)carbamoyl)-1′-methyl-[1,3′-biazetidine]-3-sulfonamide, potassium salt]", "IC50": "1000 to 10000"},
      {"smiles": "C#CCCC1(CCN2CC(S(=O)(=O)NC(=O)Nc3c4c(cc5c3CCC5)CCC4)C2)N=N1", "note": "[Example 111, 1-(2-(3-(But-3-yn-1-yl)-3H-diazirin-3-yl)ethyl)-N-((1,2,3,5,6,7-hexahydro-s-indacen-4-yl)carbamoyl)azetidine-3-sulfonamide, potassium salt]", "IC50": "1000 to 10000"},
      {"smiles": "O=C(Nc1c2c(cc3c1CCC3)CCC2)NS(=O)(=O)C1CN(C2COC2)C1", "note": "[Example 116, N-((1,2,3,5,6,7-Hexahydro-s-indacen-4-yl)carbamoyl)-1-(oxetan-3-yl)azetidine-3-sulfonamide, potassium salt]", "IC50": "1000 to 10000"},
      {"smiles": "O=C(Nc1c2c(cc3c1CCC3)CCC2)NS(=O)(=O)C1CN(C2C[S+]([O-])C2)C1", "note": "(centres unmarked) [Example 117, N-((1,2,3,5,6,7-Hexahydro-s-indacen-4-yl)carbamoyl)-1-(1-oxidothietan-3-yl)azetidine-3-sulfonamide, potassium salt]", "IC50": "< 1000"},
      {"smiles": "CC1CC(N2CC(S(=O)(=O)NC(=O)Nc3c4c(cc5c3CCC5)CCC4)C2)C1", "note": "(centres unmarked) [Example 118, N-((1,2,3,5,6,7-Hexahydro-s-indacen-4-yl)carbamoyl)-1-(3-methylcyclobutyl)azetidine-3-sulfonamide, potassium salt]", "IC50": "< 1000"},
      {"smiles": "CC1(C)CC(N2CC(S(=O)(=O)NC(=O)Nc3c4c(cc5c3CCC5)CCC4)C2)C1", "note": "[Example 119, 1-(3,3-Dimethylcyclobutyl)-N-((1,2,3,5,6,7-hexahydro-s-indacen-4-yl)carbamoyl)azetidine-3-sulfonamide, potassium salt]", "IC50": "1000 to 10000"},
      {"smiles": "O=C(Nc1c2c(cc3c1CCC3)CCC2)NS(=O)(=O)C1CN(C2CS(=O)(=O)C2)C1", "note": "[Example 120, 1-(1,1-Dioxidothietan-3-yl)-N-((1,2,3,5,6,7-hexahydro-s-indacen-4-yl)carbamoyl)azetidine-3-sulfonamide, potassium salt]", "IC50": "1000 to 10000"},
      {"smiles": "Cn1ccnc1CN1CC(S(=O)(=O)NC(=O)Nc2c3c(cc4c2CCC4)CCC3)C1", "note": "[Example 123, N-((1,2,3,5,6,7-Hexahydro-s-indacen-4-yl)carbamoyl)-1-((1-methyl-1H-imidazol-2-yl)methyl)azetidine-3-sulfonamide, potassium salt]", "IC50": "1000 to 10000"},
      {"smiles": "C/C(CN1CC(S(=O)(=O)NC(=O)Nc2c3c(cc4c2CCC4)CCC3)C1)=N/O", "note": "[Example 128, N-((1,2,3,5,6,7-Hexahydro-s-indacen-4-yl)carbamoyl)-1-(2-(hydroxyimino)propyl)azetidine-3-sulfonamide, potassium salt]", "IC50": "1000 to 10000"},
      {"smiles": "C[Si](C)(C)CN1CC(S(=O)(=O)NC(=O)Nc2c3c(cc4c2CCC4)CCC3)C1", "note": "[Example 136, N-((1,2,3,5,6,7-Hexahydro-s-indacen-4-yl)carbamoyl)-1-((trimethylsilyl)methyl)azetidine-3-sulfonamide, potassium salt]", "IC50": "1000 to 10000"},
      {"smiles": "CC1(CCN2CC(S(=O)(=O)NC(=O)Nc3c4c(cc5c3CCC5)CCC4)C2)N=N1", "note": "[Example 139, N-((1,2,3,5,6,7-Hexahydro-s-indacen-4-yl)carbamoyl)-1-(2-(3-methyl-3H-diazirin-3-yl)ethyl)azetidine-3-sulfonamide, potassium salt]", "IC50": "1000 to 10000"},
      {"smiles": "Cn1cc(CN2CC(S(=O)(=O)NC(=O)Nc3c4c(cc5c3CCC5)CCC4)C2)ccc1=O", "note": "[Example 140, N-((1,2,3,5,6,7-Hexahydro-s-indacen-4-yl)carbamoyl)-1-((1-methyl-6-oxo-1,6-dihydropyridin-3-yl)methyl)azetidine-3-sulfonamide, potassium salt]", "IC50": "< 1000"},
      {"smiles": "O=C(Nc1c2c(cc3c1CCC3)CCC2)NS(=O)(=O)C1CN(CCC2CCOC2)C1", "note": "(centres unmarked) [Example 142, N-((1,2,3,5,6,7-Hexahydro-s-indacen-4-yl)carbamoyl)-1-(2-(tetrahydrofuran-3-yl)ethyl)azetidine-3-sulfonamide, potassium salt]", "IC50": "< 1000"}
    ]}
  ]
}
